Reference: patent US10981916B2, “Substituted pyrazolopyrimidinone compounds as PDE2 inhibitors” (DART NEUROSCIENCE, LLC, priority 2016, dated 2021)

Target: PDE2A (Homo sapiens (Human), UniProt O00408)
Experiment: IMAP TR-FRET PDE2A enzymatic assay
Type: biochemical
Settings: FLAG-tagged PDE2A1 (amino acids 2-941), 200 nM FAM-cAMP substrate, 11-point half-log dose-response; for IC50: read-out: PDE2 (pIC50) (converted)
Source text: An IMAP TR-FRET-based phosphodiesterase assay was developed using the PDE2A isoform. IMAP technology is based on high-affinity binding of phosphate by immobilized metal (MIII) coordination complexes on nanoparticles. The IMAP “binding reagent” recognizes phosphate groups on AMP or GMP generated from cAMP or cGMP in a PDE reaction. Cyclic nucleotides that carry a phosphodiester bond and not a free phosphate are not recognized by the binding reagent. The time resolved fluorescence resonance energy transfer (TR-FRET) is afforded by a Terbium (Tb)-Donor pre-bound to the nanoparticles. FRET occurs when the fluorescent-labeled AMP or GMP product of a PDE reaction binds and comes into close proximity to the Tb-Donor complex. Due to the long lifetime of Tb fluorescence, detection can be run in time-resolved mode to reduce or eliminate interference from auto-fluorescent compounds.
The IMAP TR-FRET PDE2A assay was performed in 1536-well white plates. A total of 250 pg per well of FLAG-tagged PDE2A 1 (amino acids 2-941) was dispensed in 2.5 μL IMAP assay buffer consisting of 10 mM Tris pH 7.2, 10 mM MgCl2, 1 mM DTT, and 0.1% fatty acid free BSA. 30 nL of compound was then added from 1 mM stocks in DMSO using a Kalypsys Pintool. Plates were incubated for 5 min at room temperature before dispensing 1.5 μL of 533 nM FAM-cAMP substrate for a final concentration of 200 nM. Following a brief centrifugation, plates were incubated for 30 min at room temperature. The assay was terminated by adding 5 μL IMAP binding reagent Tb complex to each well which was prepared according to manufacturer's recommendations (Molecular Devices). Plates were incubated an additional 120 minutes at room temperature and read on a Viewlux plate reader. All compounds were solvated at a concentration of 10 mM in DMSO and tested in 11-point half-log dose-response. Curve fitting and IC50 values were determined using a standard four parameter fit.

Sequence of PDE2A (O00408 2-941): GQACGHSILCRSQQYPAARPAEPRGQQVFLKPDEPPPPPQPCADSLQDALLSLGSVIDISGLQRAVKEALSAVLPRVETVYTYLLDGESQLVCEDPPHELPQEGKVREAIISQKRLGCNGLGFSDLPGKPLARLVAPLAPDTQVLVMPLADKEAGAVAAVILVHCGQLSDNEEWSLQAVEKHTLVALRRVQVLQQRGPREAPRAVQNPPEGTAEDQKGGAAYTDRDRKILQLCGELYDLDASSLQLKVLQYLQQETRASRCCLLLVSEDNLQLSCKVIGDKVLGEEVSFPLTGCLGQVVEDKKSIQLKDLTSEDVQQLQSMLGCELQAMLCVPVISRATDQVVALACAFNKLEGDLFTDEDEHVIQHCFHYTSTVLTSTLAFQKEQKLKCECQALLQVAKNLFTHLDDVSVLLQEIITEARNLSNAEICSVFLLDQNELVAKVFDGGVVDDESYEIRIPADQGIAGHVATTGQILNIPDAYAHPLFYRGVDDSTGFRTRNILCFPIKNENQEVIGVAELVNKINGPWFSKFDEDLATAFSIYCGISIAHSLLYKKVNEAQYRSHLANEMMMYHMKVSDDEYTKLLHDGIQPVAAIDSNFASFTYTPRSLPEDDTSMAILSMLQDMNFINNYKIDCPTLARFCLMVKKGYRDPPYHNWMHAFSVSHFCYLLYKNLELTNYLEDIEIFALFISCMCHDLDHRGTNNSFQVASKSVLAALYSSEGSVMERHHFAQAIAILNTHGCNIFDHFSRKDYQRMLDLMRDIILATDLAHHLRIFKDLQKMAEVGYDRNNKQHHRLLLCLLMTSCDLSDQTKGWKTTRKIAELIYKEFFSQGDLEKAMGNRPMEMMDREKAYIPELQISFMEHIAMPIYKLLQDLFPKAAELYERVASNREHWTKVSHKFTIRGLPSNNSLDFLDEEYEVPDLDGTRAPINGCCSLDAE

Row | SMILES | PDE2 (pIC50) | IC50
1 | CCC(c1ccc(C(F)(F)F)nc1)n1nc(C2CC2)c2c(=O)[nH]c(Cc3ccc(OC)cn3)nc21 (stereo not shown) [Example 1, 3-cyclopropyl-6-[(5-methoxypyridin-2-yl)methyl]-1-{1-[6-(trifluoromethyl)pyridin-3-yl]propyl}-1H,4H,5H-pyrazolo[3,4-d]pyrimidin-4-one] | >7 | 
2 | COc1ccc(Cc2nc3c(c(C4CC4)nn3C(C)c3ccc(C(F)(F)F)nc3)c(=O)[nH]2)nc1 (stereo not shown) [Example 2, 3-cyclopropyl-6-[(5-methoxypyridin-2-yl)methyl]-1-{1-[6-(trifluoromethyl)pyridin-3-yl]ethyl}-1H,4H,5H-pyrazolo[3,4-d]pyrimidin-4-one] | >7 | 
3 | CCC(c1ccc(C(F)(F)F)nc1)n1nc(C2CC2)c2c(=O)[nH]c(C)nc21 (stereo not shown) [Example 3, 3-cyclopropyl-6-methyl-1-{1-[6-(trifluoromethyl)pyridin-3-yl]propyl}-1H,4H,5H-pyrazolo[3,4-d]pyrimidin-4-one] |  | 100 to 1000 nM
4 | CCC(c1ccc(C(F)(F)F)nc1)n1nc(C2CCC2)c2c(=O)[nH]c(C)nc21 (stereo not shown) [Example 4, 3-cyclobutyl-6-methyl-1-{1-[6-(trifluoromethyl)pyridin-3-yl]propyl}-1H,4H,5H-pyrazolo[3,4-d]pyrimidin-4-one] |  | > 10000 nM
5 | COc1ccc(Cc2nc3c(c(C4CC4)nn3[C@@H](C)c3ccc(C(F)(F)F)nc3)c(=O)[nH]2)nc1 [Example 5, 3-cyclopropyl-6-[(5-methoxypyridin-2-yl)methyl]-1-[(1S)-1-[6-(trifluoromethyl)pyridin-3-yl]ethyl]-1H,4H,5H-pyrazolo[3,4-d]pyrimidin-4-one] | >7 | 
6 | COc1ccc(Cc2nc3c(c(C4CC4)nn3[C@H](C)c3ccc(C(F)(F)F)nc3)c(=O)[nH]2)nc1 [Example 6, 3-cyclopropyl-6-[(5-methoxypyridin-2-yl)methyl]-1-[(1R)-1-[6-(trifluoromethyl)pyridin-3-yl]ethyl]-1H,4H,5H-pyrazolo[3,4-d]pyrimidin-4-one] |  | 100 to 1000 nM
7 | CC(c1ccc(C(F)(F)F)nc1)n1nc(C2CC2)c2c(=O)[nH]c(Cc3ccc(F)cn3)nc21 (stereo not shown) [Example 7, 3-cyclopropyl-6-[(5-fluoropyridin-2-yl)methyl]-1-{1-[6-(trifluoromethyl)pyridin-3-yl]ethyl}-1H,4H,5H-pyrazolo[3,4-d]pyrimidin-4-one] |  | 100 to 1000 nM
8 | CCC(c1ccc(C(F)(F)F)nc1)n1nc(C2CC2)c2c(=O)[nH]c(Cc3ccc(F)cn3)nc21 (stereo not shown) [Example 8, 3-cyclopropyl-6-[(5-fluoropyridin-2-yl)methyl]-1-{1-[6-(trifluoromethyl)pyridin-3-yl]propyl}-1H,4H,5H-pyrazolo[3,4-d]pyrimidin-4-one] | >7 | 
9 | CCC(c1ccc(C(F)(F)F)cn1)n1nc(C2CC2)c2c(=O)[nH]c(C)nc21 (stereo not shown) [Example 9, 3-cyclopropyl-6-methyl-1-{1-[5-(trifluoromethyl)pyridin-2-yl]propyl}-1H,4H,5H-pyrazolo[3,4-d]pyrimidin-4-one] | >7 | 
10 | Cc1nc2c(c(C3CC3)nn2C(C)c2ccc(C(F)(F)F)cc2)c(=O)[nH]1 (stereo not shown) [Example 10, 3-cyclopropyl-6-methyl-1-{1-[4-(trifluoromethyl)phenyl]ethyl}-1H,4H,5H-pyrazolo[3,4-d]pyrimidin-4-one] | >7 | 
11 | Cc1nc2c(c(C3CC3)nn2C(C)c2ccc(C(F)(F)F)cn2)c(=O)[nH]1 (stereo not shown) [Example 11, 3-cyclopropyl-6-methyl-1-{1-[5-(trifluoromethyl)pyridin-2-yl]ethyl}-1H,4H,5H-pyrazolo[3,4-d]pyrimidin-4-one] | >7 | 
12 | Cc1nc2c(c(C3CC3)nn2C(C)c2ccc(C(F)(F)F)nc2)c(=O)[nH]1 (stereo not shown) [Example 12, 3-cyclopropyl-6-methyl-1-{1-[6-(trifluoromethyl)pyridin-3-yl]ethyl}-1H,4H,5H-pyrazolo[3,4-d]pyrimidin-4-one] | >7 | 
13 | Cc1nc2c(c(C3CC3)nn2[C@H](C)c2ccc(C(F)(F)F)nc2)c(=O)[nH]1 [Example 14, 3-cyclopropyl-6-methyl-1-[(1R)-1-[6-(trifluoromethyl)pyridin-3-yl]ethyl]-1H,4H,5H-pyrazolo[3,4-d]pyrimidin-4-one] |  | 1000 to 10000 nM
14 | C[C@@H](c1ccc(C(F)(F)F)nc1)n1nc(C2CC2)c2c(=O)[nH]c(Cc3ccc(F)cn3)nc21 [Example 15, 3-cyclopropyl-6-[(5-fluoropyridin-2-yl)methyl]-1-[(1S)-1-[6-(trifluoromethyl)pyridin-3-yl]ethyl]-1H,4H,5H-pyrazolo[3,4-d]pyrimidin-4-one] |  | 100 to 1000 nM
15 | C[C@H](c1ccc(C(F)(F)F)nc1)n1nc(C2CC2)c2c(=O)[nH]c(Cc3ccc(F)cn3)nc21 [Example 16, 3-cyclopropyl-6-[(5-fluoropyridin-2-yl)methyl]-1-[(1R)-1-[6-(trifluoromethyl)pyridin-3-yl]ethyl]-1H,4H,5H-pyrazolo[3,4-d]pyrimidin-4-one] | <5 | 
16 | CC[C@@H](c1ccc(C(F)(F)F)nc1)n1nc(C2CC2)c2c(=O)[nH]c(Cc3ccc(OC)cn3)nc21 [Example 17, 3-cyclopropyl-6-[(5-methoxypyridin-2-yl)methyl]-1-[(1S)-1-[6-(trifluoromethyl)pyridin-3-yl]propyl]-1H,4H,5H-pyrazolo[3,4-d]pyrimidin-4-one] | >7 | 
17 | CC[C@H](c1ccc(C(F)(F)F)nc1)n1nc(C2CC2)c2c(=O)[nH]c(Cc3ccc(OC)cn3)nc21 [Example 18, 3-cyclopropyl-6-[(5-methoxypyridin-2-yl)methyl]-1-[(1R)-1-[6-(trifluoromethyl)pyridin-3-yl]propyl]-1H,4H,5H-pyrazolo[3,4-d]pyrimidin-4-one] | <5 | 
18 | CC[C@@H](c1ccc(C(F)(F)F)nc1)n1nc(C2CC2)c2c(=O)[nH]c(C)nc21 [Example 19, 3-cyclopropyl-6-methyl-1-[(1S)-1-[6-(trifluoromethyl)pyridin-3-yl]propyl]-1H,4H,5H-pyrazolo[3,4-d]pyrimidin-4-one] | >7 | 
19 | CC[C@H](c1ccc(C(F)(F)F)nc1)n1nc(C2CC2)c2c(=O)[nH]c(C)nc21 [Example 20, 3-cyclopropyl-6-methyl-1-[(1R)-1-[6-(trifluoromethyl)pyridin-3-yl]propyl]-1H,4H,5H-pyrazolo[3,4-d]pyrimidin-4-one] |  | 1000 to 10000 nM
20 | CC[C@@H](c1ccc(C(F)(F)F)nc1)n1nc(C2CC2)c2c(=O)[nH]c(Cc3ccc(F)cn3)nc21 [Example 21, 3-cyclopropyl-6-[(5-fluoropyridin-2-yl)methyl]-1-[(1S)-1-[6-(trifluoromethyl)pyridin-3-yl]propyl]-1H,4H,5H-pyrazolo[3,4-d]pyrimidin-4-one] | >7 | 
21 | CC[C@H](c1ccc(C(F)(F)F)nc1)n1nc(C2CC2)c2c(=O)[nH]c(Cc3ccc(F)cn3)nc21 [Example 22, 3-cyclopropyl-6-[(5-fluoropyridin-2-yl)methyl]-1-[(1R)-1-[6-(trifluoromethyl)pyridin-3-yl]propyl]-1H,4H,5H-pyrazolo[3,4-d]pyrimidin-4-one] |  | 1000 to 10000 nM
22 | CC[C@@H](c1ccc(C(F)(F)F)cn1)n1nc(C2CC2)c2c(=O)[nH]c(C)nc21 [Example 23, 3-cyclopropyl-6-methyl-1-[(1S)-1-[5-(trifluoromethyl)pyridin-2-yl]propyl]-1H,4H,5H-pyrazolo[3,4-d]pyrimidin-4-one] | >7 | 
23 | CC[C@H](c1ccc(C(F)(F)F)cn1)n1nc(C2CC2)c2c(=O)[nH]c(C)nc21 [Example 24, 3-cyclopropyl-6-methyl-1-[(1R)-1-[5-(trifluoromethyl)pyridin-2-yl]propyl]-1H,4H,5H-pyrazolo[3,4-d]pyrimidin-4-one] |  | 1000 to 10000 nM
24 | Cc1nc2c(c(C3CC3)nn2[C@@H](C)c2ccc(C(F)(F)F)cn2)c(=O)[nH]1 [Example 25, 3-cyclopropyl-6-methyl-1-[(1S)-1-[5-(trifluoromethyl)pyridin-2-yl]ethyl]-1H,4H,5H-pyrazolo[3,4-d]pyrimidin-4-one] | >7 | 
25 | Cc1nc2c(c(C3CC3)nn2[C@H](C)c2ccc(C(F)(F)F)cn2)c(=O)[nH]1 [Example 26, 3-cyclopropyl-6-methyl-1-[(1R)-1-[5-(trifluoromethyl)pyridin-2-yl]ethyl]-1H,4H,5H-pyrazolo[3,4-d]pyrimidin-4-one] |  | 1000 to 10000 nM
